Data taken from patent US20260242320A1, “USE OF CANNABIDIOL DERIVATIVE IN PREPARATION OF MEDICAMENT” (priority 2023, published 2026).

Legend:
[1] = biological target: T1, CB1 Receptor (Homo sapiens, UniProt P21554); assay: cAMP measurement, forskolin-induced cAMP accumulation, CB1; format: cell-based; settings: cAMP assay
T1 construct: expressed in transfected cells; host or cells: GloSensor 22-F HEK293 cells
Description: (§1) GloSensor 22-F HEK293 cells were transfected with plasmids encoding different receptors (CB1 and CB2). After 24 h, HEK293 cells were seeded at a density of 5×10^4 cells per well in 96-well plates and incubated for 8 h; then, the medium was removed, and 200 μL of serum-free DMEM medium containing 2% GloSensor cAMP substrate (Promega) was added. After 2 h incubation, the transfected cells were stimulated with different concentrations of ligands together with […]. The luminescence was recorded using a Multimode Plate Reader (En Vision, PerkinElmer).

[2] = biological target: T2, CB2 Receptor (Homo sapiens, UniProt P34972); assay: cAMP measurement, forskolin-induced cAMP accumulation, CB2; format: cell-based; settings: cAMP assay
T2 construct: expressed in transfected cells; host or cells: GloSensor 22-F HEK293 cells
Description: as §1

[3] = Pharmacokinetic profiles in brain and plasma after oral administration; format: in vivo, mice
Description: Following administration, mice (BALB/c, male, 20-25 g) were sacrificed at 0.5, 1, 2, 3, and 4 h. The blood and brain tissue were collected and extracted with acetonitrile.

[4] = test system: 3×Tg Alzheimer's disease mice; assay: Anxiety tests in Alzheimer's disease model mice (high plus maze, open field); format: in vivo; settings: i.p., 45 days
Source text: (§2) For Alzheimer's disease behavioral experiments (Morris water maze, open field experiment, novel object recognition, Y-maze, and elevated cross maze), triple transgenic mouse models (B6:129-Psen1tm1Mpm Tg (APPswe, tauP301L) 1Lfa/J, 3×Tg) were purchased from the Jax Laboratory in the United States. The wild-type mice (C57BL/6J, WT) were purchased from Beijing Vital River Laboratory Animal Technology Co., Ltd. After 45 days of intraperitoneal injection of CIAC001, all mice were subjected to subsequent behavioral experiments. In order to minimize the use of mice, the mice are first tested for sufficient physical strength and normal mental states. Only one behavioral experiment is conducted per day based on the following schedule: day 1: open field test; day 2-3: novel object recognition; day 3: elevated plus maze; day 4: Y-maze; day 5-13: Morris water maze.
The elevated cross maze consisted of two intersecting open arms (25×5×0.5 cm) and two enclosed arms (25×5×16 cm) that were perpendicular to the open arms. A platform (5×5×0.5 cm) was placed in the center of the maze. […]
At the beginning of the experiment, the mouse was placed in the center area of the elevated cross maze, facing one of the enclosed arms. […] A camera connected to a computer was used to capture the mouse's movements, and the number of entries and time spent in the open and enclosed arms were recorded. […]

[5] = test system: 3×Tg Alzheimer's disease mice; assay: Learning and memory tests in Alzheimer's disease model mice (Morris water maze, Y-maze); format: in vivo; settings: i.p., 45 days
Source text: as §2, with “maze. […]” for “maze.”
Place navigation training was performed from days 1 to 5. […] The time taken for the mouse to find the platform was recorded, representing the mouse's escape latency. […]
The spatial exploration test was conducted 24 hours and 72 hours after completion of place navigation training. The test conducted at 24 hours assessed short-term memory, while the test performed at 72 hours assessed long-term memory. […]

[6] = Y-maze test of short-term memory; format: in vivo, mice; settings: CIAC001 20 mg/kg i.p.; THC 10 mg/kg i.p.
Description: Mice were tested for short-term memory using a Y-maze task. Briefly, mice were placed into the Y-maze for 10 min once daily to habituate the apparatus for two consecutive days. After daily habituation, the mice were then treated with CIAC001 (20 mg/kg) or THC (10 mg/kg). On the 3rd day, mice were pretreated with CIAC001 or THC 45 min before the Y-maze test. Next, the “new arm” was blocked, and mice had 5 min to freely explore two arms (the “start arm” and the “old arm”, FIG. 8F). Mice were then removed from the Y-maze and placed into the cages for 2 min. During the test phase, mice were allowed to freely explore all three arms for 2 min, and the time spent in each arm was recorded and analyzed using the Noldus analyzing software. To eliminate olfactory interference, the Y-maze was wiped off with 70% alcohol after each test.

T2 sequence (P34972 whole entry): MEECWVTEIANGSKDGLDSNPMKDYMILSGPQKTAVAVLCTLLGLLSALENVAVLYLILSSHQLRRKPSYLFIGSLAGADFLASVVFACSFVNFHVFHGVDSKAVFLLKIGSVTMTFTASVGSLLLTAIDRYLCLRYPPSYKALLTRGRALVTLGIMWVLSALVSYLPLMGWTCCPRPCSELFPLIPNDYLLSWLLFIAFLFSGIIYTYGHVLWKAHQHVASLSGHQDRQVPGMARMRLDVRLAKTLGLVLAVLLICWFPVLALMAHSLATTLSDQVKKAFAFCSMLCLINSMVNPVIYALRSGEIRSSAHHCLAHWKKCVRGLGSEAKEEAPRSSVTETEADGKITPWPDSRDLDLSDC
T1 sequence (P21554 whole entry): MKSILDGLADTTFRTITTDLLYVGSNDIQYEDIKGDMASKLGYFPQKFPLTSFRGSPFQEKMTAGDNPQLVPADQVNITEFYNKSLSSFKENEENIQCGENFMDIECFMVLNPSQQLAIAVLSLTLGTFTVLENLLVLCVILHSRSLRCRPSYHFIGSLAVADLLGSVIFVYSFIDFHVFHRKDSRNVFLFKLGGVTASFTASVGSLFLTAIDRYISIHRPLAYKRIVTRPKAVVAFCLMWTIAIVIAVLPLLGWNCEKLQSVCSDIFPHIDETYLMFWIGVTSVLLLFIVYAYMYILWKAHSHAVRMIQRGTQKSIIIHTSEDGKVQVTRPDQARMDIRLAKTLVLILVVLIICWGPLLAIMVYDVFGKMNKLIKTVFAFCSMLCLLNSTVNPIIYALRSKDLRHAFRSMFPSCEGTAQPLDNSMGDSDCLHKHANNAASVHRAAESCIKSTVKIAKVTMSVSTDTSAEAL

In the case of C=C(C)[C@@H]1CCC(C)=C[C@H]1c1c(O)cc(C(C)n2nccn2)cc1O (stereo partly drawn) [CIAC001, (1′R,2′R)-4-(1-(2H-1,2,3-Triazol-2-yl)ethyl)-5′-methyl-2′-(prop-1-en-2-yl)-1′,2′,3′,4′-tetrahydro-[1,1′-biphenyl]-2,6-diol], the “CB1 receptor activity” value [1] is reported as “no apparent CB1/CB2 activity”, the “CB2 receptor activity” value [2] is reported as “no apparent CB1/CB2 activity” and the AUC0→t ([3]; brain, 10 mg/kg p.o., mice) is reported as 172.8 ng·h/g. For the same molecule, the “AUC0→∞” value ([3]; brain, 10 mg/kg p.o., mice) was 191.3 ng·h/g, the MRT ([3]; brain, 10 mg/kg p.o., mice) was 54 min and the “brain Cmax” value ([3]; brain, 10 mg/kg p.o., mice) was 175.0 ng/g. The t1/2 ([3]; brain, 10 mg/kg p.o., mice) was 48 min, the Kp ([3]; male, BALB/c, mouse, brain / plasma, oral, 10 mg/kg p.o., read-out: B/P ratios within the first 3 h after administration) was greater than 2 and the Kp at 0.5 h ([3]; male, BALB/c, mouse, brain / plasma, po, 0.5 h, 10 mg/kg p.o., read-out: B/P ratio) was 3.31 ± 0.382. For the same molecule, the Kp at 1 h ([3]; male, BALB/c, mouse, brain / plasma, po, 1 h, 10 mg/kg p.o., read-out: B/P ratio) was 3.63 ± 0.425, the Kp at 2 h ([3]; male, BALB/c, mouse, brain / plasma, po, 2 h, 10 mg/kg p.o., read-out: B/P ratio) was 4.12 ± 1.44 and the Kp at 3 h ([3]; male, BALB/c, mouse, brain / plasma, po, 3 h, 10 mg/kg p.o., read-out: B/P ratio) was 5.76 ± 1.34. For the same molecule, the Tmax ([3]; male, BALB/c, mouse, po, brain, 10 mg/kg p.o., mice, read-out: Tmax) was 18 min, the “BBB permeability and CNS pharmacokinetics compared to CBD” value ([3]; oral administration) was “better BBB permeability and CNS pharmacokinetics” and the “brain Cmax relative to CBD” value ([3]; vs CBD, 10 mg/kg p.o.) was “approximately 2 times”. For the same molecule, the “Alzheimer's disease induced anxiety (arm entry activity, grid traversal)” value [4] was “restored arm entry activity and grid traversal”, the “learning and memory abilities of Alzheimer's disease mice” value [5] was “improves learning and memory abilities of Alzheimer's disease mice at a lower dose than cannabidiol” and the “time spent on the new arm (Y maze)” value [6] was “did not affect the time mice spent on the new arm”.
